Source: US20250195432A1, “METHODS FOR PREPARING AND CHARACTERIZING ZEIN-FUCOIDAN CONJUGATED NANO-LIPOSOME FOR PHYTOL ENCAPSULATION” (Zhejiang Academy of Forestry, priority 2023, published 2025)

Legend:
[1] = Photostability under UV light, phytol retention by GC-MS; assay type: physicochemical; conditions: after 16 hours of UV exposure; free phytol in ethanol
Protocol: • exposing a sample to ultraviolet (UV) light for various irradiation durations: […], 90 minutes, 120 minutes, 150 minutes, 180 minutes, 210 minutes, 240 minutes, 270 minutes, […]; and determining retention of phytol content using GC-MS.
To assess the photostability of phytol loaded in nanoparticles (P-ZF, P-NL, and P-NL-ZF) as well as free phytol dissolved in ethanol, samples were irradiated under UV light for various durations: […], 90 minutes, 120 minutes, 150 minutes, 180 minutes, 210 minutes, 240 minutes, 270 minutes, […] The content of retained phytol was determined using GC-MS as described in Section 2.5.2. The calculation formula for retention rate is given as follows: […]

[2] = Hydroxyl radical scavenging activity; assay type: biochemical; conditions: 37° C., 30 minutes, absorbance 536 nm
Protocol: • mixing 1.00 mL of the nanoliposomes with 1.00 mL of 9.00 mmol/L salicylic acid ethanol solution, 1.00 mL of 9.00 mmol/L FeCl2, and 1.00 mL of 8.80 mmol/L H2O2; incubating a resulting mixture in the dark at 37° C. for 30 minutes; measuring an absorbance of a reaction mixture at 536 nm using a multifunctional microplate reader and calculating a hydroxyl radical scavenging rate;
A sample of the nanoliposome (1.00 mL) was mixed with an ethanol solution of salicylic acid (1.00 mL, 9.00 mmol/L), FeCl2 (1.00 mL, 9.00 mmol/L), and H2O2(1.00 mL, 8.80 mmol/L) and incubated in the dark at 37° C. for 30 minutes. The absorbance of the reaction mixture was measured at 536 nm using a multifunctional microplate reader (Varioskan Flash, Thermo Fisher Scientific, Massachusetts, USA). The hydroxyl radical scavenging rate was calculated using the following formula: […]

HepG2 cells [3] = experiment: Intracellular ROS level (DCFH-DA) in HepG2 cells with TBHP-induced oxidative damage; assay type: cell-based, human; conditions: for ROS level (percentage of the negative control group): HepG2, pre-treatment 100 μg/mL phytol 24 h, then TBHP (10 μg/mL)
Protocol: • […], P-ZF, P-NL, and P-NL-ZF to the plate for another 24 hours of incubation; […]; measuring a cell survival rate, an intracellular reactive oxygen species (ROS) level, malondialdehyde (MDA) content, and superoxide dismutase (SOD) activity.
(§1) • placing the digested HepG2 cells in a culture dish and performing a treatment as in step (O); adding 10.00 μM 2′,7′-dichlorodihydrofluorescein diacetate (DCFH-DA) and incubating for 0.5 hours, followed by washing with PBS (pH 7.4); allowing intracellular esterase to cleave the DCFH-DA, which is then oxidized to highly fluorescent dichlorofluorescein in the presence of ROS; measuring a fluorescence intensity of the 96-well plate using a multifunctional microplate reader at an excitation wavelength of 485 nm and an emission wavelength of 528 nm, expressing the intracellular ROS level as a percentage of the negative control group; • assessing the SOD activity and the MDA content by culturing the digested HepG2 cells for 24 hours; after the treatment as in step (O), adding 300 μL of lysis buffer and incubating on ice for 30 minutes; centrifuging at 11,000×g for 5 minutes at 4° C. and collecting a resulting supernatant; and quantifying the SOD activity and the MDA content according to instructions of SOD and MDA assay kits; and
• seeding the digested cells at a density of 3×10^5 cells per well into a 6-well plate and incubating for 24 hours; after incubation, aspirating a culture medium and continuing with the grouping and treatment as in step (0); after 24 hours, replacing an original solution with 25 μM DCFH-DA solution and incubating for 60 minutes; washing the cells twice with PBS to remove unabsorbed probes; observing a fluorescence generated within the cells by placing the 6-well plate under a fluorescence microscope equipped with an FITC fluorescence channel.
HepG2 cells, after digestion, were seeded at a density of 1×10^5 cells/well in a 96-well cell culture plate and were placed in a cell culture incubator. […]

HepG2 cells [4] = experiment: SOD activity in HepG2 cells with TBHP-induced oxidative damage; assay type: cell-based, human; conditions: HepG2, TBHP (10 μg/mL)
Protocol: (§2) • culturing the digested HepG2 cells for 24 hours and then adding […] concentrations of PHY, P-ZF, P-NL, and P-NL-ZF to the plate for another 24 hours of incubation; […]; measuring a cell survival rate, an intracellular reactive oxygen species (ROS) level, malondialdehyde (MDA) content, and superoxide dismutase (SOD) activity.
as §1, with “kits; and […]” for “kits; and”

HepG2 cells [5] = experiment: TBHP-induced oxidative damage concentration, cell viability by CCK-8; assay type: cell-based, human; conditions: HepG2, TBHP 10 μg/mL, 24 hours
Protocol: HepG2 cells, after digestion, were seeded at a density of 1×10^5 cells/well in a 96-well cell culture plate and were incubated in a cell culture incubator. […] After 24 hours of incubation, the culture medium was removed, and the working solutions of TBHP at different concentrations were added to the wells, followed by an additional 24 hours of incubation. After the incubation period, the vitality of the HepG2 cells was assessed using the CCK-8 method, as detailed in section 2.6.4.

HepG2 cells [6] = experiment: MDA content in HepG2 cells with TBHP-induced oxidative damage; assay type: cell-based, human; conditions: HepG2, TBHP (10 μg/mL)
Protocol: as §2
as §1, with “kits; and […]” for “kits; and”

Row | Compound | retention rate of phytol under UV [1] [%] | scavenging capability against •OH radicals [2] [%] | reduction of ROS level compared to the positive control (328.16%) (HepG2 cells [3]; HepG2, TBHP (10 μg/mL)) [%] | ROS level (percentage of the negative control group) (HepG2 cells [3]) [%] | SOD activity (HepG2 cells [4]) [U/mg protein] | cell viability (HepG2 cells [5]) [%] | MDA level (lipid peroxidation) (HepG2 cells [6])
1 | (2E,3,7R,11R,15)-tetramethyl-hexadecen-1-ol [PHY] | 1.21 | 40 | 97.44 | 230.72 | 11.61 | – | –
2 | CC(C)(C)OO [TBHP, Tert-Butyl Hydrogen Peroxide] | – | – | – | 328.42 | 8.43 | 65.67 | significant increase in MDA
